Assay results taken from US20090099231A1, “3-Sulfonylamino-Pyrrolidine-2-One Derivatives as Factor Xa Inhibitors” (priority 2005, published 2009).
Counter-ions that a name gives are not always drawn.

Tests used:
[1] = test system: human plasma; experiment: Measurement of Prothrombin Time (PT), time to clot formation in plasma; details: pooled plasma from 4 donors, test compound 0.03 to 100 uM, Thromboplastin C Plus
Experimental: Blood was collected into a sodium citrate solution (ratio 9:1) to give a final concentration of 0.38% citrate. Plasma was generated by centrifugation of citrated blood samples at 1200×g for 20 min at 4° C. and stored at −20° C. until use.
The PT test was performed using the BCS Coagulation Analyzer (Dade Behring). For assay, 50 ul of plasma containing test compound at concentrations ranging from 0.03 to 100 uM (made from a 100 uM stock containing 1% DMSO in plasma) was combined with 100 ul of Thromboplastin C Plus (Dade Behring). Upon addition of the reagents, absorbance at 405 nm was monitored and time to clot formation is determined (normal range for human plasma is 10.6-12.4 seconds).

[2] = target: human Factor Xa (Homo sapiens, UniProt P00742); experiment: In vitro assay for inhibition of Factor Xa (fluorogenic assay, Rhodamine 110 bis-Cbz-glycylglycyl-L-arginine amide substrate); assay type: biochemical; details: for Factor Xa inhibitory activity: human Factor Xa 0.0003 U.ml-1, substrate 10 μM, 15 min preincubation, room temperature, pH 7.4; for Ki: Ki=IC50/(1+[Substrate]/Km), i.e. IC50 divided by 1.6, human Factor Xa fluorogenic assay
Sequence of human Factor Xa (P00742 235-488 limits assumed): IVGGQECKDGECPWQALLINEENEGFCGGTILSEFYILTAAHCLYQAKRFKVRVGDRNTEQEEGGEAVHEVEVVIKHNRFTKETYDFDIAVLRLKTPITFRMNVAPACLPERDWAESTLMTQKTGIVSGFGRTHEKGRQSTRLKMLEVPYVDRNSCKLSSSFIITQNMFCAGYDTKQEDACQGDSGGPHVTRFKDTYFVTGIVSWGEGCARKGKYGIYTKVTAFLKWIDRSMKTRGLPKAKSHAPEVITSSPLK
Sequence of human Factor Xa (P00742 41-179 partner limits assumed): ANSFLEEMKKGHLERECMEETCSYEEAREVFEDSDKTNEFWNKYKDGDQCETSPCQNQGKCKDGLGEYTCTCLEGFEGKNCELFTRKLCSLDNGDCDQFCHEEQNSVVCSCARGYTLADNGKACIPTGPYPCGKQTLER
Experimental: Compounds of the present invention were tested for their Factor Xa inhibitory activity as determined in vitro by their ability to inhibit human Factor Xa in a fluorogenic assay, using Rhodamine 110, bis-Cbz-glycylglycyl-L-arginine amide as the fluorogenic substrate. Compounds were diluted from a 10 mM stock solution in dimethylsulfoxide at appropriate concentrations. Assay was performed at room temperature using buffer consisting of: 50 mM Tris-HCl, 150 mM NaCl, 5 mM CaCl2, pH 7.4 containing human Factor Xa (final concentration of 0.0003 U.ml-1). Compound and enzyme were preincubated for 15 min prior to addition of the substrate (final concentration of 10 μM). The reaction was stopped after 3 hrs with the addition of H-D-Phe-Pro-Arg-Chloromethylketone. An LJL-Analyst fluorimeter was used to monitor fluorescence with 485 nm excitation/535 nm emission. To obtain IC50 values the data were analysed using ActivityBase® and XLfit®.
Ki=IC50/(1+[Substrate]/Km)
The Ki value for the above assay can be obtained by dividing the IC50 value by 1.6.

Row | SMILES | Factor Xa inhibitory activity [2] | Ki [2] | activity in prothrombin time (PT) test [1]
1 | Cl.O=C1[C@@H](NS(=O)(=O)/C=C/c2ccc(Cl)s2)CCN1c1cc2c(cc1F)CNCC2 [Example 22, (E)-2-(5-Chloro-2-thienyl)-N-[(3S)-1-(7-fluoro-1,2,3,4-tetrahydro-6-isoquinolinyl)-2-oxo-3-pyrrolidinyl]ethenesulfonamide hydrochloride] | exhibit Factor Xa inhibitory activity | – | exhibit activity
2 | Cl.O=C1[C@@H](NS(=O)(=O)/C=C/c2ccc(Cl)s2)CCN1c1cc2c(cc1Cl)CNCC2 [Example 25, (E)-N-[(3S)-1-(7-Chloro-1,2,3,4-tetrahydro-6-isoquinolinyl)-2-oxo-3-pyrrolidinyl]-2-(5-chloro-2-thienyl)ethenesulfonamide hydrochloride] | exhibit Factor Xa inhibitory activity | – | exhibit activity
3 | Cc1cc2c(cc1N1CC[C@H](NS(=O)(=O)/C=C/c3ccc(Cl)s3)C1=O)CCNC2.Cl [Example 28, (E)-2-(5-Chloro-2-thienyl)-N-[(3S)-1-(7-methyl-1,2,3,4-tetrahydro-6-isoquinolinyl)-2-oxo-3-pyrrolidinyl]ethenesulfonamide hydrochloride] | exhibit Factor Xa inhibitory activity | – | exhibit activity
4 | CC1NCCc2cc(N3CC[C@H](NS(=O)(=O)/C=C/c4ccc(Cl)s4)C3=O)ccc21 (stereo partly drawn) [Example 32, (E)-2-(5-Chloro-2-thienyl)-N-[(3S)-1-(1-methyl-1,2,3,4-tetrahydro-6-isoquinolinyl)-2-oxo-3-pyrrolidinyl]ethenesulfonamide hydrochloride] | exhibit Factor Xa inhibitory activity | < 10 nM | exhibit activity
5 | CC1Cc2cc(N3CC[C@H](NS(=O)(=O)/C=C/c4ccc(Cl)s4)C3=O)ccc2CN1 (stereo partly drawn) [Example 33, (E)-2-(5-Chloro-2-thienyl)-N-[(3S)-1-(3-methyl-1,2,3,4-tetrahydro-6-isoquinolinyl)-2-oxo-3-pyrrolidinyl]ethenesulfonamide hydrochloride] | exhibit Factor Xa inhibitory activity | < 10 nM | exhibit activity
6 | O=C1[C@@H](NS(=O)(=O)c2cc3cc(Cl)ccc3[nH]2)CCN1c1ccc2c(c1)CCNC2.O=CO [Example 36, 5-Chloro-N-[(3S)-2-oxo-1-(1,2,3,4-tetrahydro-6-isoquinolinyl)-3-pyrrolidinyl]-1H-indole-2-sulfonamide] | exhibit Factor Xa inhibitory activity | < 10 nM | exhibit activity
7 | CN1CCc2cc(N3CC[C@H](NS(=O)(=O)/C=C/c4ccc(Cl)cc4)C3=O)ccc2C1.O=CO [Example 37, (E)-2-(4-Chlorophenyl)-N-[(3S)-1-(2-methyl-1,2,3,4-tetrahydro-6-isoquinolinyl)-2-oxo-3-pyrrolidinyl]ethenesulfonamide formate] | exhibit Factor Xa inhibitory activity | – | exhibit activity
8 | CC1Cc2cc(N3CC[C@H](NS(=O)(=O)c4ccc5cc(Cl)ccc5c4)C3=O)ccc2CN1.O=CO (stereo partly drawn) [Example 38, 6-Chloro-N-[(3S)-1-(3-methyl-1,2,3,4-tetrahydro-6-isoquinolinyl)-2-oxo-3-pyrrolidinyl]-2-naphthalenesulfonamide formate] | exhibit Factor Xa inhibitory activity | – | exhibit activity

Now from value to compound, other results behind:

Row | Factor Xa inhibitory activity [2] | Ki [2] | SMILES | activity in prothrombin time (PT) test [1]
9 | exhibit Factor Xa inhibitory activity | – | Cl.O=C1[C@@H](NS(=O)(=O)c2ccc3c(Cl)c[nH]c3c2)CCN1c1cc2c(cc1F)CNCC2 [Example 23, 3-Chloro-N-[(3S)-1-(7-fluoro-1,2,3,4-tetrahydro-6-isoquinolinyl)-2-oxo-3-pyrrolidinyl]-1H-indole-6-sulfonamide hydrochloride] | exhibit activity
10 | exhibit Factor Xa inhibitory activity | – | Cl.O=C1[C@@H](NS(=O)(=O)c2ccc3cc(Cl)ccc3c2)CCN1c1cc2c(cc1Cl)CNCC2 [Example 24, 6-Chloro-N-[(3S)-1-(7-chloro-1,2,3,4-tetrahydro-6-isoquinolinyl)-2-oxo-3-pyrrolidinyl]-2-naphthalenesulfonamide hydrochloride] | exhibit activity
11 | exhibit Factor Xa inhibitory activity | < 10 nM | Cl.O=C1[C@@H](NS(=O)(=O)c2ccc3c(Cl)c[nH]c3c2)CCN1c1cc2c(cc1Cl)CNCC2 [Example 26, 3-Chloro-N-[(3S)-1-(7-chloro-1,2,3,4-tetrahydro-6-isoquinolinyl)-2-oxo-3-pyrrolidinyl]-1H-indole-6-sulfonamide hydrochloride] | exhibit activity
12 | exhibit Factor Xa inhibitory activity | – | Cc1cc2c(cc1N1CC[C@H](NS(=O)(=O)c3ccc4cc(Cl)ccc4c3)C1=O)CCNC2.Cl [Example 27, 6-Chloro-N-[(3S)-1-(7-methyl-1,2,3,4-tetrahydro-6-isoquinolinyl)-2-oxo-3-pyrrolidinyl]-2-naphthalenesulfonamide hydrochloride] | exhibit activity
13 | exhibit Factor Xa inhibitory activity | – | Cc1cc2c(cc1N1CC[C@H](NS(=O)(=O)c3ccc4c(Cl)c[nH]c4c3)C1=O)CCNC2.Cl [Example 29, 3-Chloro-N-[(3S)-1-(7-methyl-1,2,3,4-tetrahydro-6-isoquinolinyl)-2-oxo-3-pyrrolidinyl]-1H-indole-6-sulfonamide hydrochloride] | exhibit activity
14 | exhibit Factor Xa inhibitory activity | < 10 nM | CC(C)N1CCc2cc(N3CC[C@H](NS(=O)(=O)c4ccc5cc(Cl)ccc5c4)C3=O)ccc2C1 [Example 30, 6-Chloro-N-{(3S)-1-[2-(1-methylethyl)-1,2,3,4-tetrahydro-6-isoquinolinyl]-2-oxo-3-pyrrolidinyl}-2-naphthalenesulfonamide] | exhibit activity
15 | exhibit Factor Xa inhibitory activity | < 10 nM | CC1NCCc2cc(N3CC[C@H](NS(=O)(=O)c4ccc5cc(Cl)ccc5c4)C3=O)ccc21 (stereo partly drawn) [Example 31, 6-Chloro-N-[(3S)-1-(1-methyl-1,2,3,4-tetrahydro-6-isoquinolinyl)-2-oxo-3-pyrrolidinyl]-2-naphthalenesulfonamide hydrochloride] | exhibit activity
